In ChEMBL document CHEMBL3286321, “Facile Synthesis and Preliminary Structure-Activity Analysis of New Sulfonamides Against Trypanosoma brucei” (ACS Med Chem Lett, 2014) one finds selectivity ratio, IC50 and inhibition data, which are given here for 26 compounds.

Series [1] in a line: Selectivity index, ratio of IC50 for HEK293 cells to IC50 for Trypanosoma brucei brucei 427. The format is toxicity, cell-based. The settings on record: human, read-out: Ratio IC50.
The subject of series [2] is Trypanosoma brucei brucei. In words: Trypanocidal activity against logarithmic phase of Trypanosoma brucei brucei 427 assessed as inhibition of parasite viability after 48 hrs by Alamar blue viability assay. As to conditions: Trypanosoma brucei, 427, 48 h. The format is functional, organism-based.
The test system of series [3] is Trypanosoma brucei brucei. In words: Trypanocidal activity against logarithmic phase of Trypanosoma brucei brucei 427 assessed as inhibition of parasite viability at 10 uM after 48 hrs by Alamar blue viability assay. It counts as functional. The settings on record: Trypanosoma brucei, 427, 48 h.

Where only a bound is given, the exact number is not on record here.

Regarding `CCS(=O)(=O)N1CCCc2ccc(NS(=O)(=O)c3cccs3)cc21`, the selectivity ratio in series [1] was found to be 20.8. Besides, the IC50 (usually the concentration that inhibits the measured activity by half) in series [2] is 4 µM.
For `CCS(=O)(=O)N1CCCc2ccc(NS(=O)(=O)c3ccccc3F)cc21`, the selectivity ratio in series [1] was 32.
Regarding `CCS(=O)(=O)N1CCCc2ccc(NS(=O)(=O)c3ccc(F)cc3)cc21`, the selectivity ratio in series [1] was 11.8. Besides, the IC50 in series [2] was 7.8 µM.
For `CCS(=O)(=O)N1CCCc2ccc(NS(=O)(=O)c3cccc(F)c3)cc21`, the selectivity ratio in series [1] is 11.2. Besides, the IC50 in series [2] came to 7.8 µM.
For `CCS(=O)(=O)N1CCCc2ccc(NS(=O)(=O)c3c(F)cccc3F)cc21`, the inhibition (as a rule, the change of the read-out against control, counted positive when it falls) at 10 µM in series [3] was found to be 82%.
Same read-out and setting: under `CCS(=O)(=O)N1CCCc2ccc(NS(=O)(=O)c3c(F)c(F)c(F)c(F)c3F)cc21` stands 94%.
As for `CCS(=O)(=O)N1CCCc2ccc(NS(=O)(=O)c3ccc(Br)cc3F)cc21`, in series [1], the selectivity ratio stood at 9. Besides, the half-inhibitory concentration (IC50) in series [2] is 9.9 µM.
In the case of `CCS(=O)(=O)N1CCCc2ccc(NS(=O)(=O)c3ccc(Br)s3)cc21`, the selectivity ratio in series [1] is 7.7. In addition, in series [2], the IC50 was determined as 11.2 µM.
For `CCS(=O)(=O)N1CCCc2ccc(NS(=O)(=O)c3ccc(Cl)s3)cc21`, the selectivity ratio in series [1] was 6.9. In addition, the IC50 in series [2] amounted to 13.1 µM.
For `CCS(=O)(=O)N1CCCc2ccc(NS(=O)(=O)c3ccc(C)cc3)cc21`, the selectivity ratio in series [1] was determined as 25.8. The IC50 in series [2] amounted to 3.4 µM.
As to `CCS(=O)(=O)Nc1ccc2c(c1)N(S(=O)(=O)CC)CCC2`, the inhibition at 10 µM in series [3] was 14%.
For `CCS(=O)(=O)N1CCCc2ccc(NS(=O)(=O)CC(F)(F)F)cc21`, in series [3], the inhibition at 10 µM is 18%.
`CCCS(=O)(=O)N1CCCc2ccc(NS(=O)(=O)c3ccc(C)cc3)cc21`: the selectivity ratio in series [1] came to 29. For the same compound, the 50% inhibitory concentration (IC50) in series [2] was 1.84 µM.
For `CCCS(=O)(=O)N1CCCc2ccc(NS(=O)(=O)c3ccc(C(C)C)cc3)cc21` the same measures were 8.9 and 1.71 µM.
For the compound `CCCS(=O)(=O)N1CCCc2ccc(NS(=O)(=O)c3ccc(-c4ccccc4)cc3)cc21`, in series [1], the selectivity ratio was found to be 16.6. In addition, in series [2], the IC50 stood at 5.7 µM.
Turning to `CCCS(=O)(=O)N1CCCc2ccc(NS(=O)(=O)c3ccccc3F)cc21`, the selectivity ratio in series [1] amounted to 24.3. The IC50 in series [2] was 3.5 µM.
In the case of `CCCS(=O)(=O)N1CCCc2ccc(NS(=O)(=O)c3cccs3)cc21`, the inhibition at 10 µM in series [3] was less than 10%.
Same read-out and setting: under `CCCS(=O)(=O)N1CCCc2ccc(NS(=O)(=O)c3ccccc3C)cc21` stands 11%; under `CCCS(=O)(=O)N1CCCc2ccc(NS(=O)(=O)c3cccc(C)c3)cc21`, less than 10%.
As for `CCCS(=O)(=O)N1CCCc2ccc(NS(=O)(=O)c3ccc(C)cc3C)cc21`, the selectivity ratio in series [1] was determined as 10.4. Moreover, in series [2], the half-inhibitory concentration (IC50) was 9 µM.
As for `CCCS(=O)(=O)N1CCCc2ccc(NS(=O)(=O)c3cc(C)cc(C)c3)cc21`, in series [3], the inhibition at 10 µM is less than 10%.
Turning to `CCCS(=O)(=O)N1CCCc2ccc(NS(=O)(=O)c3c(C)c(C)c(C)c(C)c3C)cc21`, the selectivity ratio in series [1] came out at 11.4. Moreover, the half-maximal inhibitory concentration (IC50) in series [2] came to 7.9 µM.
As for `O=S(=O)(Nc1ccc2c(c1)N(S(=O)(=O)c1cccs1)CCC2)c1cccs1`, in series [3], the inhibition at 10 µM was determined as 35%.
As for `Cc1ccc(S(=O)(=O)Nc2ccc3c(c2)N(S(=O)(=O)c2cccs2)CCC3)cc1`, the selectivity ratio in series [1] stood at 2.5. In addition, the IC50 in series [2] was 3.1 µM.
For `Cc1ccc(S(=O)(=O)N2CCCc3ccc(NS(=O)(=O)c4cccs4)cc32)cc1` the same measures were 1.7 and 7.9 µM.
Regarding `Cc1ccc(S(=O)(=O)Nc2ccc3c(c2)N(S(=O)(=O)c2ccc(C)cc2)CCC3)cc1`, the selectivity ratio in series [1] amounted to 1.8. Besides, the IC50 in series [2] was found to be 3.9 µM.
